This is an account of results in paper PMC9754190, “Human CYP2B6 produces oxylipins from polyunsaturated fatty acids and reduces diet-induced obesity” (PLOS ONE, 2022).

Experiment [1] concerns the target T1, CYP2B6 (Homo sapiens, UniProt P20813).
T1 sequence (P20813 1-491): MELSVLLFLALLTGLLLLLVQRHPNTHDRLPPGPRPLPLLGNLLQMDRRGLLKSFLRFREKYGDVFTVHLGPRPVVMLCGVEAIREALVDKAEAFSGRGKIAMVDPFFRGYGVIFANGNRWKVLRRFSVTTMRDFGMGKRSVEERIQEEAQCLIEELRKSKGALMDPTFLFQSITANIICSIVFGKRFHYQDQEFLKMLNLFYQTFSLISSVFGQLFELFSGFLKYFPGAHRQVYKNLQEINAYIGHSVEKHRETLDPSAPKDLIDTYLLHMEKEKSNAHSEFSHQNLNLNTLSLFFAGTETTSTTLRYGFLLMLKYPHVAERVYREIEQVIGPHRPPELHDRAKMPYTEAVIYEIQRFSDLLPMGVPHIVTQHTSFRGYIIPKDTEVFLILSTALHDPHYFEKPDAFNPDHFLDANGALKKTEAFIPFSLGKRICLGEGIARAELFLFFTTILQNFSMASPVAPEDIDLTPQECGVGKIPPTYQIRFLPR
Description: biochemical.

In experiment [2] the target is T1, CYP2B6. Put plainly: Vivid CYP2B6 Blue fluorescence inhibition assay with recombinant baculosomes. The experiment is classed as biochemical. On the set-up: CYP2B6-containing baculosomes.

In turn, `CC/C=C\C/C=C\C/C=C\CCCCCCCC(=O)O` [ALA, α-linolenic acid] came in with an IC50 on CYP2B6 [1] of 4480 nM. As for `CCCCC/C=C\C/C=C\CCCCCCCC(=O)O` [LA, linoleic acid], the half-maximal inhibitory concentration (IC50) at CYP2B6 [2] was 2900 nM.

As for `CC/C=C\C/C=C\C/C=C\C/C=C\C/C=C\C/C=C\CCC(=O)O` [DHA, docosahexaenoic acid], the half-inhibitory concentration (IC50) at CYP2B6 [2] stood at 2400 nM. For `CCCCC/C=C\C/C=C\C/C=C\C/C=C\CCCC(=O)O` [AA, arachidonic acid], on CYP2B6 [2], the IC50 came out at 1510 nM.
